Calls of active or inactive are those of the source. The calls are words filed in the database; no cut-off is given here.
How the values were obtained:
[1] = Ratio of drug level in brain to plasma in C57BL/6 mouse at 10 mg/kg, po measured after 60 mins by LC/MS/MS analysis; assay type: ADME, organism-based; settings: brain and plasma, read-out: BPR
[2] = biological target: G-protein coupled receptor 52 (Mus musculus) (UniProt P0C5J4); experiment: In vivo agonist activity at GPR52 in C57BL/6 mouse assessed as inhibition of basal locomotor activity at 10 mg/kg, po measured for 60 mins starting at 15 mins post-drug challenge; assay type: functional, organism-based; settings: time 75.0 min
G-protein coupled receptor 52 (Mus musculus), sequence (P0C5J4 whole entry): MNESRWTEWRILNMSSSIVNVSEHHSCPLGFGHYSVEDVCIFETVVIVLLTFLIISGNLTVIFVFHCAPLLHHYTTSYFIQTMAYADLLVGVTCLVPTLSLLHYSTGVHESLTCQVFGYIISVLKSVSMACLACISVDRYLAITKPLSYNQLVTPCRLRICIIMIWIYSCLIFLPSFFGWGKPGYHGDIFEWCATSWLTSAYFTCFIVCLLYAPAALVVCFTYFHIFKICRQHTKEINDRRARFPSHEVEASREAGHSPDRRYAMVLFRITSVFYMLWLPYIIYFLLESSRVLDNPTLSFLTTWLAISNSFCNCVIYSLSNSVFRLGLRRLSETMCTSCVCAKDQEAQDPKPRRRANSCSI

Mus musculus [3] = experiment: Increase in PPI in 129Sv/Ev mouse with low PPI at 10 mg/kg, po measured after 30 mins; assay type: functional, organism-based
Rattus norvegicus [4] = experiment: Inhibition of haloperidol-induced hyperprolactinemia in Sprague-Dawley rat assessed as reduction in prolactin release in plasma at 10 mg/kg, po administered 30 mins prior to 0.3 mg/kg haloperidol challenge and measured after 60 mins by ELISA; assay type: functional, organism-based; settings: time 90.0 min
Rattus norvegicus [5] = experiment: Antipsychotic activity in Sprague-Dawley rat assessed as inhibition of amphetamine-stimulated locomotor activity at 0.5 to 20 mg/kg, po administered 15 mins prior to amphetamine stimulation and measured for 30 to 60 mins post-drug dosage; assay type: functional, organism-based; settings: dose 0.5-20 mg/kg, time 30-60 min
[6] = Induction of catalepsy in Sprague-Dawley rat assessed as increase in latency to move both forepaws at 5 to 100 mg/kg, po measured after 45 mins; assay type: organism-based; settings: in vivo, 0.75 h, dose 5-100 mg/kg
[7] = biological target: G-protein coupled receptor 52 (Mus musculus) (UniProt P0C5J4); experiment: In vivo agonist activity at GPR52 in po dosed C57BL/6 mouse assessed as inhibition of basal locomotor activity measured for 60 mins starting at 15 mins post-drug challenge; assay type: functional, organism-based; settings: time 75.0 min
Rattus norvegicus [8] = experiment: Antipsychotic activity in Sprague-Dawley rat assessed as inhibition of MK801-induced disruption of prepulse inhibition at 5 to 20 mg/kg, po administered 15 mins prior to […] and measured after 15 mins; assay type: functional, organism-based; settings: dose 5-20 mg/kg, time 30.0 min
[9] = Induction of hyperprolactinemia in Sprague-Dawley rat assessed as increase in prolactin release in plasma at 1 to 100 mg/kg, po measured after 60 mins by ELISA; assay type: organism-based; settings: in vivo, 1 h, dose 1-100 mg/kg
[10] = Toxicity in Sprague-Dawley rat assessed as inhibition of basal locomotor activity at 20 mg/kg, po; assay type: organism-based; settings: in vivo
Mus musculus [11] = experiment: Antipsychotic activity in 129Sv/Ev mouse assessed as inhibition of MK801-induced disruption of prepulse inhibition at 10 mg/kg, po co-administered with haloperidol at 15 mins prior to MK801 challenge and measured after 15 mins; assay type: functional, organism-based; settings: time 30.0 min
[12] = Ratio of drug level in brain to plasma in C57BL/6 mouse at 3 mg/kg, po measured after 60 mins by LC/MS/MS analysis; assay type: ADME, organism-based; settings: brain and plasma, read-out: BPR
Rattus norvegicus [13] = experiment: Antipsychotic activity in Sprague-Dawley rat assessed as inhibition of amphetamine-induced disruption of prepulse inhibition at 5 to 20 mg/kg, po administered 15 mins prior to amphetamine challenge and measured after 15 mins; assay type: functional, organism-based; settings: dose 5-20 mg/kg, time 30.0 min
[14] = Induction of hyperprolactinemia in Sprague-Dawley rat assessed as increase in prolactin release in plasma at 0.1 to 1 mg/kg, po measured after 60 mins by ELISA; assay type: organism-based; settings: in vivo, 1 h, dose 0.1-1 mg/kg
[15] = Induction of catalepsy in Sprague-Dawley rat assessed as increase in latency to move both forepaws at 0.1 to 1 mg/kg, sc measured after 45 mins; assay type: organism-based; settings: in vivo, 0.75 h, dose 0.1-1 mg/kg

| Kp at 1 h [1] | inhibition [2] | SMILES | other results |
| --- | --- | --- | --- |
| 3 | 65% | O=C(NCCO)c1cccc2c1CCN2c1cc(Cc2cc(F)c(F)c(F)c2)ccn1 | – |
| – | 61% | NC(=O)c1cccc2c1CCN2c1cc(Cc2ccc(F)c(C(F)(F)F)c2)ccn1 | – |
| – | 67% | COc1ccc(Cc2ccnc(N3CCc4c(C(=O)NC[C@@H](F)CO)cccc43)c2)cc1F | – |
| 1.67 | – | O=C(NCCO)c1c(F)ccc2c1CCN2c1cc(Cc2cccc(C(F)(F)F)c2)ccn1 | – |
| 4.67 | – | NC(=O)c1cccc2c1CCN2c1cc(Cc2cncc(C(F)(F)F)c2)ccn1 | – |
| – | 70% | O=C(NCCO)c1cccc2c1CCN2c1cc(Cc2cccc(C(F)(F)F)c2)ccn1 | Activity (Mus musculus [3]): Active; inhibition (Rattus norvegicus [4]): Active; Activity (Rattus norvegicus [5]): Active; Activity [6]: Non-Toxic; ED50 [7]: 2.7 mg/kg; Activity (Rattus norvegicus [8]): Active; Activity [9]: Non-Toxic; Activity [10]: Toxic; Activity (Mus musculus [11]): Active; Kp at 1 h [12]: 3.51; Activity (Rattus norvegicus [13]): Active |
| 5.45 | 79% | O=C(NCCO)c1cccc2c1CCN2c1cc(Cc2cc(F)cc(Cl)c2)ccn1 | – |
| 0.87 | – | COc1ccc(Cc2ccnc(N3CCc4c(C(=O)NCCO)cccc43)c2)cc1F | – |

Second part, the molecule before the results:

| SMILES | Kp at 1 h [1] | inhibition [2] | other results |
| --- | --- | --- | --- |
| O=C(NC1CCN(CCO)CC1)c1cccc2c1CCN2c1cc(Cc2ccc3c(c2)CCO3)ccn1 | 0.16 | – | – |
| NC(=O)c1cccc2c1CCN2c1cc(Cc2cc(F)cc(Cl)c2)ccn1 | 12.4 | – | – |
| COc1ccc(Cc2ccnc(N3CCc4c(C(N)=O)cccc43)c2)cc1F | 6.32 | 66% | – |
| O=C(NC[C@@H](F)CO)c1cccc2c1CCN2c1cc(Cc2cc(F)c(F)c(F)c2)ccn1 | 2.85 | 70% | – |
| COC[C@@H](O)CNC(=O)c1cccc2c1CCN2c1cc(Cc2cc(F)c(F)c(F)c2)ccn1 | – | 72% | – |
| NC(=O)c1cccc2c1CCN2c1cc(Cc2ccc3occc3c2)ccn1 | – | 81% | – |
| CC(=O)c1cccc(Cc2ccnc(N3CCc4c(C(N)=O)cccc43)c2)c1 | 1.36 | 72% | – |
| NC(=O)c1cccc2c1CCN2c1cc(Cc2ccc(F)c(Cl)c2)ccn1 | 7.76 | – | – |
| O=C(CCCN1CCC(O)(c2ccc(Cl)cc2)CC1)c1ccc(F)cc1 [HALOPERIDOL] | – | – | Activity [14]: Toxic; Activity [15]: Toxic |
| NC(=O)c1cccc2c1CCN2c1cc(Cc2cccc(C(F)(F)F)c2)ccn1 | – | – | Kp at 1 h [12]: 4.49 |
| O=C(NCCO)c1c(F)ccc2c1CCN2c1cc(Cc2cc(F)c(F)c(F)c2)ccn1 | – | 68% | – |
| C[C@@H](O)CNC(=O)c1cccc2c1CCN2c1cc(Cc2cc(F)c(F)c(F)c2)ccn1 | – | 68% | – |
| COc1ccc(Cc2ccnc(N3CCc4c3ccc(F)c4C(=O)NC[C@@H](F)CO)c2)cc1F | – | 62% | – |

From ChEMBL document CHEMBL4806956, “1-heteroaryl-indoline-4-carboxamides as modulators of gpr52 useful for the treatment or prevention of disorders related thereto” (2020)
